Laboratory results published in US6624143B1, “Calcium salts of lipopeptide antibiotics, method for producing same and their use” (Aventis Pharma Deutschland GmbH, priority 1998, dated 2003).
Counter-ions that a name gives are not always drawn. Like-named read-outs stand apart in the source and are kept apart here.

Assays:
Format in all cases: cell-based
Enteroc. faecalis, DU18 = experiment: serial dilution test, MIC; conditions: tetR, novR
From the text: (§1) Table 3: In-vitro activity of the A1437D Ca salt against Gram-positive bacteria in the serial dilution test indicated as the minimum inhibitory concentration (MIC)

Enteroc. faecalis, HM9 = experiment: serial dilution test, MIC; conditions: novR, vanR, eryR
From the text: as §1

Enteroc. faecalis, UC5 = experiment: serial dilution test, MIC; conditions: ATCC 29212 novR
From the text: as §1

Enteroc. faecium, AP9 = experiment: serial dilution test, MIC; conditions: vanR, teiR
From the text: as §1

Enteroc. faecium, HM3 = experiment: serial dilution test, MIC; conditions: teiR, vanR, eryR
From the text: as §1

Enteroc. faecium, HT12 = experiment: serial dilution test, MIC; conditions: teiR, vanR, eryR, tetR
From the text: as §1

Enteroc. faecium, IP2 = experiment: serial dilution test, MIC; conditions: teiR, vanR, eryR, tetR
From the text: as §1

[1] = system: Enteroc. gallinarium, HM8; experiment: serial dilution test, MIC; conditions: vanR, tetR
From the text: as §1

Staph. aureus, 11CB20 = experiment: serial dilution test, MIC; conditions: Staphylococcus aureus, oxaR, eryR, tetR
From the text: as §1

Staph. aureus, 11DU5 = experiment: serial dilution test, MIC; conditions: Staphylococcus aureus, novR, tetR
From the text: as §1

Staph. aureus, 11GO64 = experiment: serial dilution test, MIC; conditions: Staphylococcus aureus, oflR, oxaR, eryR, novR
From the text: as §1

Staph. aureus, 11HT1 = experiment: serial dilution test, MIC; conditions: Staphylococcus aureus, novR
From the text: as §1

[2] = system: Staph. aureus, ATCC 13709; experiment: serial dilution test, MIC; conditions: Staphylococcus aureus, ATCC13709
From the text: as §1

Staph. epidermidis, GO20 = experiment: serial dilution test, MIC; conditions: Staphylococcus epidermidis, tetR
From the text: as §1

Staph. epidermidis, GO42 = experiment: serial dilution test, MIC; conditions: Staphylococcus epidermidis, oxaR
From the text: as §1

Staphyloc. aureus, 11HT3 = experiment: serial dilution test, MIC; conditions: S
From the text: as §1

[3] = system: Staphyloc. coagul. negativ; experiment: serial dilution test, MIC; conditions: oflR, oxaR, tetR
From the text: as §1

Streptoc. gr. G, GOCB2 = experiment: serial dilution test, MIC; conditions: tetR, rifR, novR
From the text: as §1

Streptoc. milleri, GR12 = experiment: serial dilution test, MIC; conditions: S
From the text: as §1

Streptoc. mitis, GR16 = experiment: serial dilution test, MIC; conditions: eryR
From the text: as §1

[4] = system: Streptoc. pneumoniae 30B12; experiment: serial dilution test, MIC; conditions: eryR
From the text: as §1

[5] = system: Streptoc. pyogenes, A1F16; experiment: serial dilution test, MIC; conditions: eryR
From the text: as §1

[6] = system: Streptoc. pyogenes, A1SJ1; experiment: serial dilution test, MIC; conditions: eryR
From the text: as §1

monkey blood = conditions: rhesus monkey, 3 h
Description: For the measurement of hemolytic activity, freshly taken, venous human, Rhesus monkey or beagle dog blood is used. The blood is collected in heparinized tubes and distributed in aliquots of 200 μl into 12 polyethylene tubes. One aliquot is treated with 200 μl of distilled water and used as a 100% standard, another is mixed with 200 μl of physiological saline solution (0.9% NaCl). 200 μl each of substance dilutions in physiological saline solution to 1600, 800, 400, 200, 100, 50, 25, 12.5, 6.25 and 3.125 mg/l are distributed into the other tubes. All tubes are carefully swung and then incubated for 3 hours at 37° C. The 100% standard is then made up with 5 ml of distilled water, the other tubes with 5 ml each of physiological saline solution, and centrifuged at 700 g for 5 minutes.
The hemolysis is determined by measurement of the absorption of the supernatant in a spectrophotometer at a wavelength of 540 nm. The absorption of the standard with complete hemolysis is set at 100%. The absorption of the test preparation dilutions and of the 0% standard are measured and indicated as a percentage of the maximally inducible hemolysis.

MIC (Enteroc. faecalis, DU18): 0.6 µg/mL
MIC (Enteroc. faecalis, HM9): 2.5 µg/mL
MIC (Enteroc. faecalis, UC5): 2.5 µg/mL
MIC (Enteroc. faecium, AP9): 0.6 µg/mL
MIC (Enteroc. faecium, HM3): 0.6 µg/mL
MIC (Enteroc. faecium, HT12): 0.6 µg/mL
MIC (Enteroc. faecium, IP2): 0.6 µg/mL
MIC [1]: 0.15 µg/mL
MIC (Staph. aureus, 11CB20): 0.6 µg/mL
MIC (Staph. aureus, 11DU5): 0.08 µg/mL
MIC (Staph. aureus, 11GO64): 0.6 µg/mL
MIC (Staph. aureus, 11HT1): 0.15 µg/mL
MIC [2]: 0.6 µg/mL
MIC (Staph. epidermidis, GO20): 0.3 µg/mL
MIC (Staph. epidermidis, GO42): 0.3 µg/mL
MIC (Staphyloc. aureus, 11HT3): 0.04 µg/mL
MIC [3]: 0.3 µg/mL
MIC (Streptoc. gr. G, GOCB2): 0.3 µg/mL
MIC (Streptoc. milleri, GR12): 0.3 µg/mL
MIC (Streptoc. mitis, GR16): 0.3 µg/mL
MIC [4]: 0.3 µg/mL
MIC [5]: 0.6 µg/mL
MIC [6]: 0.6 µg/mL
Compound: CC(C)CCCCCCC/C=C\CC(=O)N[C@@H](CC(N)=O)C(=O)N[C@@H]1C(=O)N2CCCC[C@@H]2C(=O)N[C@@H]([C@H](C)C(=O)O)C(=O)N[C@@H](CC(=O)O)C(=O)NCC(=O)N[C@@H](CC(=O)O)C(=O)NCC(=O)N[C@H]([C@@H](C)N)C(=O)N[C@@H](C(C)C)C(=O)N2CCC[C@H]2C(=O)N[C@@H]1C [A1437D Ca salt]
in vitro hemolysis, percentage of the maximally inducible hemolysis (monkey blood; 12.5 mg/l): 0%
in vitro hemolysis, percentage of the maximally inducible hemolysis (monkey blood; 25 mg/l): 0%
in vitro hemolysis, percentage of the maximally inducible hemolysis (monkey blood; 50 mg/l): 0%
in vitro hemolysis, percentage of the maximally inducible hemolysis (monkey blood; 100 mg/l): 3%
in vitro hemolysis, percentage of the maximally inducible hemolysis (monkey blood; 200 mg/l): 6%
in vitro hemolysis, percentage of the maximally inducible hemolysis (monkey blood; 400 mg/l): 9%
in vitro hemolysis, percentage of the maximally inducible hemolysis (monkey blood; 800 mg/l): 15%
in vitro hemolysis, percentage of the maximally inducible hemolysis (monkey blood; 1600 mg/l): 19%
